Where two headings read alike, the source gives them in different places.
Key:
[1] = system: Hs683; assay: SRB anti-proliferative assay, Hs683, molecular combination and nanoparticles, with combination index (Example III); type: cell-based; conditions: Homo sapiens, Hs 683, 72 h, read-out: Zah. (inhibition of proliferation)
Protocol: (§1) Cells were thawed from ampoules stored in liquid nitrogen and cultured in petri dishes in the appropriate culture medium according to Table 16, in a humidified 5% CO2 atmosphere at 37° C. Cells were passaged twice weekly using EDTA-Trypsin solution, pH 8, as a separating agent. Counted cells with a viability of at least 90% as assessed with Trypan-Blue solution were used for anti-proliferation assays.
(§2) Twenty-four hours before the addition of the test compounds/combinations, cells were seeded into 384-well plates at 50 μL/well and a density of 10^3 cells/well, in the appropriate culture medium. […] Solutions of the compounds were diluted in the test medium—RPMI-1640 and Opti-MEM in a 1:1 ratio, and the medium was supplemented with 2 mM glutamine and 5% fetal bovine serum FBS.
(§3) After 72 h, colourimetric assessment of cell growth was performed by SRB. […] Unbound dye was removed by washing the plates (4×) in 1% (v/v) acetic acid, and protein-bound dye was extracted with 10 mM unbuffered Tris base and the optical density (A=540 nm) was determined in a BioTek Synergy H4 Hybrid computer microplate reader (BioTek Instruments USA). The entire washing/staining procedure was performed using a BioTek EL406 washing station (BioTek Instruments USA). The raw absorbance results were analysed in Microsoft Excel software using the formula:
(§4) [formula] • Where: • % Zahlnh-inhibition of proliferation • Am—absorbance of wells without cells (medium) • Ak—absorbance of control wells (cells treated with pure culture medium) • Ap—absorbance of wells treated with compounds
(§5) Each compound at the indicated concentrations was tested in triplicate in one experiment. Each experiment was repeated three times. Data analysis was supplemented with synergy assessment using CalcuSyn software. […] A CI value below 0.8 indicates synergism, 0.8-1.2 an additive effect, above 1.2 an antagonism.

[2] = system: NCI-H1299; assay: SRB anti-proliferative assay, NCI-H1299, with CalcuSyn combination index (Example 1); type: cell-based; conditions: Homo sapiens, NCI-H1299, 72 h, read-out: Zah. (inhibition of proliferation)
Protocol: as §1, with “in” for “in the”, “2,” for “16,”, “8.” for “8, as a separating agent.”, “anti-proliferative” for “anti-proliferation”
(§6) Twenty-four hours before the addition of the test compounds/combinations, cells were seeded into 384-well plates at 50 μL/well and a density of 10^3 cells/well, in the appropriate culture medium.
as §3, with “Solutions of the compounds were diluted in the test medium-RPMI-1640 and Opti-MEM in a 1:1 ratio, and the medium was supplemented with 2 mM glutamine and 5% fetal bovine serum FBS. After” for “After”
as §4, §5

[3] = system: SW1990; assay: SRB anti-proliferative assay, SW1990, with CalcuSyn combination index (Example 1); type: cell-based; conditions: Homo sapiens, SW1990, 72 h, read-out: Zah. (inhibition of proliferation)
Protocol: as §1, with “in” for “in the”, “2,” for “16,”, “8.” for “8, as a separating agent.”, “anti-proliferative” for “anti-proliferation”
as §6
as §3, with “Solutions of the compounds were diluted in the test medium-RPMI-1640 and Opti-MEM in a 1:1 ratio, and the medium was supplemented with 2 mM glutamine and 5% fetal bovine serum FBS. After” for “After”
as §4, §5

[4] = system: 8 cell lines; assay: SRB anti-proliferative assay, summary over the panel of 8 cell lines (Example III); type: cell-based, human; conditions: CI analysis not possible
Protocol: as §1, §2
Unbound dye was removed by washing the plates (4×) in 1% (v/v) acetic acid, and protein-bound dye was extracted with 10 mM unbuffered Tris base and the optical density (A=540 nm) was determined in a BioTek Synergy H4 Hybrid computer microplate reader (BioTek Instruments USA). […] The raw absorbance results were analysed in Microsoft Excel software using the formula:
[formula] • Where: • % Zahlnh-inhibition of proliferation • Am—absorbance of wells without cells (medium) • Ak—absorbance of control wells (cells treated with pure culture medium) • Ap—absorbance of wells treated with compounds […]

[5] = system: NCI-H1975; assay: SRB anti-proliferative assay, NCI-H1975, with CalcuSyn combination index (Example 1); type: cell-based; conditions: Homo sapiens, NCI-H1975, 72 h, read-out: Zah. (inhibition of proliferation)
Protocol: as §1, with “in” for “in the”, “2,” for “16,”, “8.” for “8, as a separating agent.”, “anti-proliferative” for “anti-proliferation”
as §6
as §3, with “Solutions of the compounds were diluted in the test medium-RPMI-1640 and Opti-MEM in a 1:1 ratio, and the medium was supplemented with 2 mM glutamine and 5% fetal bovine serum FBS. After” for “After”
as §4, §5

[6] = system: LN229; assay: SRB anti-proliferative assay, LN229, molecular combination and nanoparticles, with combination index (Example III); type: cell-based; conditions: Homo sapiens
Protocol: as §1, §2, §3, §4, §5

[7] = system: SK-MES-1; assay: SRB anti-proliferative assay, SK-MES-1, with CalcuSyn combination index (Example 1); type: cell-based; conditions: Homo sapiens, SK-MES-1, 72 h, read-out: Zah. (inhibition of proliferation)
Protocol: as §1, with “in” for “in the”, “2,” for “16,”, “8.” for “8, as a separating agent.”, “anti-proliferative” for “anti-proliferation”
as §6
as §3, with “Solutions of the compounds were diluted in the test medium-RPMI-1640 and Opti-MEM in a 1:1 ratio, and the medium was supplemented with 2 mM glutamine and 5% fetal bovine serum FBS. After” for “After”
as §4, §5

[8] = system: SKMES-1; assay: SRB anti-proliferative assay, SKMES-1, molecular combination and nanoparticles, with combination index (Example III); type: cell-based; conditions: Homo sapiens, SK-MES-1, read-out: Inhibition of cell proliferation (Zah.)
Protocol: as §1, §2, §3, §4, §5

[9] = LN-229, 72 h, read-out: Zah. (inhibition of proliferation)
[10] = LN-229, read-out: Zah. (inhibition of cell proliferation)

Structure (SMILES): C=CCNC1=C2C[C@@H](C)C[C@H](OC)[C@H](O)[C@@H](C)/C=C(\C)[C@H](OC(N)=O)[C@@H](OC)/C=C\C=C(/C)C(=O)NC(=CC1=O)C2=O [17AAG, 17-AAG (tanespimycin)]
- inhibition at 0.0003163 µM [1]: 8.3%
- inhibition at 0.001 µM [1]: 50.3%
- inhibition at 0.0032 µM [1]: 63%
- inhibition at 0.01 µM [1]: 93.9%
- inhibition at 0.0316 µM [1]: 79.2%
- inhibition at 0.1 µM [1]: 82%
- inhibition at 0.3163 µM [1]: 91%
- inhibition at 1 µM [1]: 94.3%
- inhibition at 0.0031 µM [2]: 5.1%
- inhibition at 0.01 µM [2]: 10.5%
- inhibition at 0.0314 µM [2]: 43.4%
- inhibition at 0.1 µM [2]: 80.8%
- inhibition at 0.3155 µM [2]: 93.4%
- inhibition at 1 µM [2]: 96.9%
- inhibition at 3.1546 µM [2]: 96.8%
- inhibition at 10 µM [2]: 95.3%
- inhibition at 0.0031 µM [3]: -0.2%
- inhibition at 0.01 µM [3]: 5.7%
- inhibition at 0.0314 µM [3]: 40.7%
- inhibition at 0.1 µM [3]: 81.7%
- inhibition at 0.3155 µM [3]: 90.6%
- inhibition at 1 µM [3]: 92.9%
- inhibition at 3.1546 µM [3]: 93.5%
- inhibition at 10 µM [3]: 92.6%
- 17-AAG activity [4]: low
- inhibition at 0.0031 µM [5]: 10%
- inhibition at 0.01 µM [5]: 25.2%
- inhibition at 0.0314 µM [5]: 66.7%
- inhibition at 0.1 µM [5]: 84.1%
- inhibition at 0.3155 µM [5]: 87.6%
- inhibition at 1 µM [5]: 88.5%
- inhibition at 3.1546 µM [5]: 88.4%
- inhibition at 10 µM [5]: 86.6%
- inhibition at 0.0032 µM [6, 9]: 3.3%
- inhibition at 0.01 µM [6, 9]: 3.1%
- inhibition at 0.0316 µM [6, 9]: 18.4%
- inhibition at 0.1 µM [6, 9]: 28.9%
- inhibition at 0.3163 µM [6, 9]: 38.7%
- inhibition at 1 µM [6, 9]: 62.9%
- inhibition at 3.1625 µM [6, 9]: 71.6%
- inhibition at 10.0005 µM [6, 9]: 81.5%
- inhibition at 0.0032 µM [6, 10]: 3.3%
- inhibition at 0.01 µM [6, 10]: 3.1%
- inhibition at 0.0316 µM [6, 10]: 18.4%
- inhibition at 0.1 µM [6, 10]: 28.9%
- inhibition at 0.3163 µM [6, 10]: 38.7%
- inhibition at 1 µM [6, 10]: 62.9%
- inhibition at 3.1625 µM [6, 10]: 71.6%
- inhibition at 10.0005 µM [6, 10]: 81.5%
- inhibition at 0.0031 µM [7]: 9.2%
- inhibition at 0.01 µM [7]: 12.7%
- inhibition at 0.03 µM [7]: 55.1%
- inhibition at 0.1 µM [7]: 80%
- inhibition at 0.3124 µM [7]: 85.2%
- inhibition at 1 µM [7]: 86.5%
- inhibition at 3.1392 µM [7]: 86.9%
- inhibition at 10 µM [7]: 87%
- inhibition at 0.0003163 µM [8]: 2.2%
- inhibition at 0.001 µM [8]: 46.7%
- inhibition at 0.0032 µM [8]: 86.7%
- inhibition at 0.01 µM [8]: 90.6%
- inhibition at 0.0316 µM [8]: 85.1%
- inhibition at 0.1 µM [8]: 87.9%
- inhibition at 0.3163 µM [8]: 89.3%
- inhibition at 1 µM [8]: 89.1%

— patent publication US20260325487A1 (BS BIOTECHNA SPOLKA AKCYJNA, priority 2023, published 2026)
